Results as given in US20060063782A1, “3-Hetero arylmethoxy ! pyridines and their analogues as p38 map kinase inhibitors” (priority 2002, published 2006).

Target: p38 MAP kinase (Homo sapiens, UniProt Q16539)
Assay: p38 MAP Kinase Assay (33P incorporation into myelin basic protein, filter plate)
Assay type: biochemical
Settings: MKK6-activated p38, MBP substrate, 50 minutes
Experimental: The activated p38 is then diluted 1:6 with assay buffer, and 20 μl mixed with 25 μl of MBP mix (300 μl 10×strength assay buffer, 300 μl of 10 mM DTT & 10 mM sodium orthovanadate, 1.7 ml H2O, 50 μCi γ^33P-ATP, 200 μl of myelin basic protein (MBP) (5 mg/ml)) and added to 96 well plates along with 5 μl of various dilutions of the test compound in DMSO (up to 10%). The reaction is allowed to proceed for 50 minutes before being stopped with an excess of ortho-phosphoric acid (30 μl at 2%).
γ^33P-ATP which remains unincorporated into the myelin basic protein is separated from phosphorylated MBP on a Millipore MAPH filter plate. The wells of the MAPH plate are wetted with 0.5% orthophosphoric acid, and then the results of the reaction are filtered with a Millipore vacuum filtration unit through the wells. Following filtration, the residue is washed twice with 200 μl of 0.5% orthophosphoric acid. Once the filters have dried, 25 μl of Microscint 20 scintillant is added, and then counted on a Packard Topcount for 30 seconds.

Sequence of p38 MAP kinase (Q16539 whole entry): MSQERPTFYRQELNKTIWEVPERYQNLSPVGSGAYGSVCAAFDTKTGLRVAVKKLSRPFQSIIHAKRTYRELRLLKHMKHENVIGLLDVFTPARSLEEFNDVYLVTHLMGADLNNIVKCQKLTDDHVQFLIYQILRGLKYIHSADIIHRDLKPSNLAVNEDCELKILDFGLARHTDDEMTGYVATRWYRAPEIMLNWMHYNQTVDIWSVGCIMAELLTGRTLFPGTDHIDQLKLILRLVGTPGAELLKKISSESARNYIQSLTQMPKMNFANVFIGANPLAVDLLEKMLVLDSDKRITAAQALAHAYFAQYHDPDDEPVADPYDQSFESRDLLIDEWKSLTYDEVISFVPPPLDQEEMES

| Compound | IC50 (Table 2) | IC50 (Table 1) |
| --- | --- | --- |
| CC(C)c1nnc(NC(=O)Nc2ccc(F)c(COc3cnccn3)c2)s1 [Compound 97, 1-[4-Fluoro-3-(pyrazin-2-yloxymethyl)-phenyl]-3-(5-isopropyl-[1,3,4]thiadiazol-2-yl)-urea] | < 20 µM |  |
| COc1cc(C(=O)Nc2ccc(F)c(COc3cnccn3)c2)nc(Cl)n1 [Compound 105, 2-Chloro-6-methoxy-pyrimidine-4-carboxylic acid [4-fluoro-3-(pyrazin-2-yloxymethyl)-phenyl]-amide] | < 1000 µM |  |
| CC(C)(CO)C(=O)Nc1cnc(OCc2c(Cl)cccc2Cl)cn1 [Compound 177] | < 200 µM |  |
| Nc1cnc(OCc2c(Cl)cccc2Cl)cn1 [Compound 110] | < 200 µM |  |
| Nc1ncccc1OCc1cc(NC(=O)c2ccccc2)ccc1Cl [Compound 57, N-[3-(2-Amino-pyridin-3-yloxymethyl)-4-chloro-phenyl]-benzamide] |  | < 20 µM |
| O=C(Nc1ccc(F)c(COc2cnccn2)c1)Nc1nnc(C2CCCO2)s1 (stereo not drawn) [Compound 120, 1-[4-Fluoro-3-(pyrazin-2-yloxymethyl)-phenyl]-3-[5-(tetrahydro-furan-2-yl)-[1,3,4]thiadiazol-2-yl]-urea] | < 2 µM |  |
| Cc1nc(-c2cc(C(=O)Nc3ccc(F)c(COc4cnccn4)c3)no2)cs1 [Compound 124, 5-(2-Methyl-thiazol-4-yl)-isoxazole-3-carboxylic acid [4-fluoro-3-(pyrazin-2-yloxymethyl)-phenyl]-amide] | < 200 µM |  |
| O=C(Nc1ccc(Cl)c(COc2cccnc2)c1)Oc1ccccc1 [Compound 79, [4-Chloro-3-(pyridin-3-yloxymethyl)-phenyl]-carbamic acid phenyl ester] |  | < 20 µM |
| CC(C)(C)c1cc(C(=O)Nc2ccc(F)c(COc3cnccn3)c2)cc(C(C)(C)C)c1 [Compound 146, 3,5-Di-tert-butyl-N-[4-fluoro-3-(pyrazin-2-yloxymethyl)-phenyl]-benzamide] | < 2 µM |  |
| CC(C)(C)c1cc(NC(=O)Nc2ccc(F)c(COc3cnccn3)c2)n(-c2ccccc2)n1 [Compound 106, 1-(5-tert-Butyl-2-phenyl-2H-pyrazol-3-yl)-3-[4-fluoro-3-(pyrazin-2-yloxymethyl)-phenyl]-urea] | < 2 µM |  |
| CC(C)(CO)NC(=O)Nc1cnc(OCc2c(Cl)cccc2Cl)cn1 [Compound 176] | < 2 µM |  |
| Clc1cnc(OCc2c(Cl)cccc2Cl)cn1 [Compound 88] | < 1000 µM |  |
| c1cc(COc2cccnc2)cc(COc2cccnc2)c1 [Compound 58] |  | < 1000 µM |
| CC(C)(C)c1cc(C(=O)Nc2ccc(F)c(COc3cnccn3)c2)n(Cc2ccc(F)cc2)n1 [Compound 136, 5-tert-Butyl-2-(4-fluoro-benzyl)-2H-pyrazole-3-carboxylic acid [4-fluoro-3-(pyrazin-2-yloxymethyl)-phenyl]-amide] | < 20 µM |  |
| CC(C)(C)c1cccc(C(=O)Nc2ccc(F)c(COc3cnccn3)c2)c1 [Compound 103, 3-tert-Butyl-N-[4-fluoro-3-(pyrazin-2-yloxymethyl)-phenyl]-benzamide] | < 2 µM |  |
| O=C(Nc1ccc(Cl)c(COc2ccc(NCc3ccccc3)nc2)c1)c1cc(F)cc(N2CCOCC2)c1 [Compound 77, N-[3-(6-Benzylamino-pyridin-3-yloxymethyl)-4-chloro-phenyl]-3-fluoro-5-morpholin-4-yl-benzamide] |  | < 2 µM |
| O=C(Nc1ccc(F)c(COc2cnccn2)c1)Nc1nnc(Cc2ccccc2)s1 [Compound 121, 1-(5-Benzyl-[1,3,4]thiadiazol-2-yl)-3-[4-fluoro-3-(pyrazin-2-yloxymethyl)-phenyl]-urea] | < 2 µM |  |
| CC(C)(C)c1cc(NC(=O)Nc2ccc(F)c(COc3cnccn3)c2)n(-c2ccc(Cl)nn2)n1 [Compound 156, 1-[5-tert-Butyl-2-(6-chloro-pyridazin-3-yl)-2H-pyrazol-3-yl]-3-[4-fluoro-3-(pyrazin-2-yloxymethyl)-phenyl]-urea] | < 2 µM |  |
| CC(C)c1nnc(NC(=O)Nc2ccc(F)c(COc3cccnc3)c2)s1 [Compound 81, 1-[4-Fluoro-3-(pyridin-3-yloxymethyl)-phenyl]-3-(5-isopropyl-[1,3,4]thiadiazol-2-yl)-urea] |  | < 20 µM |
| CC(C)(C)c1ccc(-n2nc(C3CC3)cc2NC(=O)Nc2ccc(F)c(COc3cnccn3)c2)cc1 [Compound 164, 1-[2-(4-tert-Butyl-phenyl)-5-cyclopropyl-2H-pyrazol-3-yl]-3-[4-fluoro-3-(pyrazin-2-yloxymethyl)-phenyl]-urea] | < 200 µM |  |
| OCCNc1cnc(OCc2c(Cl)cccc2Cl)cn1 [Compound 158, 2-[5-(2,6-Dichloro-benzyloxy)-pyrazin-2-ylamino]-ethanol] | < 200 µM |  |
| Nc1ncccc1OCc1ccc(F)c(F)c1 [Compound 14, 2-amino-3-(3,4-difluorobenzyloxy)pyridine] |  | < 1000 µM |
| O=S(=O)(c1ccccc1)N(c1ccc(Cl)c(COc2cccnc2)c1)S(=O)(=O)c1ccccc1 [Compound 56, N-[4-Chloro-3-(pyridin-3-yloxymethyl)-phenyl]-bisbenzenesulfonamide] |  | < 1000 µM |
| Nc1ncccc1OCc1cccc(Cl)c1F [Compound 27] |  | < 1000 µM |

| Compound | IC50 (Table 2) | IC50 (Table 1) |
| --- | --- | --- |
| O=C(Nc1ccc(F)c(COc2cnccn2)c1)Nc1nc(-c2ccccc2)cs1 [Compound 123, 1-[4-Fluoro-3-(pyrazin-2-yloxymethyl)-phenyl]-3-(4-phenyl-thiazol-2-yl)-urea] | < 20 µM |  |
| O=C(Nc1ccc(F)c(COc2cnccn2)c1)Oc1cccc(C(F)(F)F)c1 [Compound 99, [4-Fluoro-3-(pyrazin-2-yloxymethyl)-phenyl]-carbamic acid 3-trifluoromethyl-phenyl ester] | < 20 µM |  |
| O=C(Nc1ccc(Cl)c(COc2cccnc2)c1)c1ccnc(N2CCOCC2)c1 [Compound 44, N-[4-Chloro-3-(pyridin-3-yloxymethyl)-phenyl]-2-morpholin-4-yl-isonicotinamide] |  | < 2 µM |
| O=C(Nc1ccc(F)c(COc2cnccn2)c1)Nc1n[nH]cc1-c1ccccc1 [Compound 119, 1-[4-Fluoro-3-(pyrazin-2-yloxymethyl)-phenyl]-3-(4-phenyl-1H-pyrazol-3-yl)-urea] | < 20 µM |  |
| O=C(Nc1ccccc1)Nc1ccc(Cl)c(COc2cccnc2)c1 [Compound 61, 1-[4-Chloro-3-(pyridin-3-yloxymethyl)-phenyl]-3-phenyl-urea] |  | < 20 µM |
| Nc1ncccc1OCc1cccc(C(=O)NCC2CC2)c1 [Compound 34] |  | < 1000 µM |
| Nc1ncccc1OCc1cccc2ccoc12 [Compound 47] |  | < 1000 µM |
| Clc1ncccc1OCc1ccccc1 [Compound 10, 3-Benzyloxy-2-chloropyridine] |  | < 2000 µM |
| Nc1ncccc1OCc1ccccc1C(F)(F)F [Compound 23] |  | < 100 µM |
| O=C(Nc1ccc(F)c(COc2cnccn2)c1)c1cc(N2CCOCC2)nc(N2CCOCC2)n1 [Compound 150, 2,6-Di-morpholin-4-yl-pyrimidine-4-carboxylic acid [4-fluoro-3-(pyrazin-2-yloxymethyl)-phenyl]-amide] | < 2 µM |  |
| Clc1cccc(Cl)c1COc1cnc(NC2CCOCC2)cn1 [Compound 166] | < 200 µM |  |
| O=C(Nc1ccc(F)c(COc2cccnc2)c1)c1cc(F)cc(N2CCOCC2)c1 [Compound 62, 3-Fluoro-N-[4-fluoro-3-(pyridin-3-yloxymethyl)-phenyl]-5-morpholin-4-yl-benzamide] |  | < 2 µM |
| Nc1ncccc1OCc1ccc(F)cc1F [Compound 13, 2-amino-3-(2,4-difluorobenzyloxy)pyridine] |  | < 1000 µM |
| Nc1ncccc1OCc1cccc(Cl)c1 [Compound 9, 2-amino-3-(3-chlorobenzyloxy)pyridine] |  | < 1000 µM |
| CSc1nnc(NC(=O)Nc2ccc(F)c(COc3cnccn3)c2)s1 [Compound 149, 1-[4-Fluoro-3-(pyrazin-2-yloxymethyl)-phenyl]-3-(5-methylsulfanyl-[1,3,4]thiadiazol-2-yl)-urea] | < 200 µM |  |
| Nc1ncc(OCc2ccccc2)nc1Br [Compound 84] | < 1000 µM |  |
| CC(C)(C)c1csc(NC(=O)Nc2ccc(F)c(COc3cnccn3)c2)n1 [Compound 100, 1-(4-tert-Butyl-thiazol-2-yl)-3-[4-fluoro-3-(pyrazin-2-yloxymethyl)-phenyl]-urea] | < 20 µM |  |
| CC(C)(C)c1ccc2[nH]cc(CC(=O)Nc3ccc(F)c(COc4cnccn4)c3)c2c1 [Compound 143] | < 200 µM |  |
| Cc1nc2sccn2c1C(=O)Nc1ccc(F)c(COc2cnccn2)c1 [Compound 144, 6-Methyl-imidazo[2,1-b]thiazole-5-carboxylic acid [4-fluoro-3-(pyrazin-2-yloxymethyl)-phenyl]-amide] | < 2 µM |  |
| Nc1ccc(Cl)c(COc2cccnc2)c1 [Compound 41] |  | < 1000 µM |
| O=C(Nc1ccc(Cl)c(COc2cnccn2)c1)c1ccccc1 [Compound 92, N-[4-Chloro-3-(pyrazin-2-yloxymethyl)-phenyl]-benzamide] | < 20 µM |  |
| Nc1ncccc1OCc1ccccc1CS(=O)(=O)c1ccccc1 [Compound 25] |  | < 1000 µM |
| O=C(Nc1ccc(Cl)c(COc2cccnc2)c1)c1cccc(Cl)c1 [Compound 70, 3-Chloro-N-[4-chloro-3-(pyridin-3-yloxymethyl)-phenyl]-benzamide] |  | < 20 µM |
| Cc1ccc(-n2nc(C(C)(C)C)cc2NC(=O)Nc2ccc(F)c(COc3cnccn3)c2)cc1 [Compound 130, 1-(5-tert-Butyl-2-p-tolyl-2H-pyrazol-3-yl)-3-[4-fluoro-3-(pyrazin-2-yloxymethyl)-phenyl]-urea] | < 2 µM |  |
